Patent publication US8173700B2, “Salts of substituted allophanates and their use in drugs” (Gruenenthal GmbH, priority 2005, dated 2012)

Assays:
hVR1 = target: T1, hVR1 (Homo sapiens, UniProt Q8NER1); assay: Functional investigation at the vanilloid receptor (VR1), FLIPR Ca2+ influx assay, Method II, hVR1; type: cell-based; details: for IC50: suppression of capsaicin-induced Ca2+ influx; for inhibition at 10 µM: test substance 10 μM, CHO K1 cells transfected with VR1, inhibition of Ca2+ influx after 100 nM capsaicin, compared to maximum inhibition with 10 μM capsazepin
T1 construct: expressed in transfected cells; host or cells: CHO K1 cells (ECACC)
Description: (§1) The agonistic and/or antagonistic effects of the test substances on the vanilloid receptor (VR1) can be determined with the following assay. According to this assay the Ca^2+ influx through the channel is quantified by means of a Ca^2+-sensitive dye (Type Fluo-4, Molecular Probes, Europe BV, Leyden, The Netherlands) in the Fluorescent Imaging Plate Reader (FLIPR, Molecular Devices, Sunnyvale, USA).
(§2) Chinese hamster ovary cells (CHO K1-cells, European Collection of Cell Cultures (ECACC) Great Britain) are stably transfected with the VR1 gene. For functional studies, these cells are plated on poly-D-lysine-coated, black 96-well plates with clear bottom (BD Biosciences, Heidelberg, Germany) at a density of 25 000 cells/well. The cells are incubated overnight at 37° C. and 5% CO2 in a culture medium (Nutrient Mixture Ham's F12, 10 vol. % FCS (fetal calf serum), 18 μg/ml L-proline). On the next day the cells are incubated for 30 minutes at 37° C. with Fluo-4 (Fluo-4 2 μM, Pluronic F127 0.01 vol. %, Molecular Probes) in HBSS (Hank's buffered saline solution), (Gibco Invitrogen GmbH, Karlsruhe, Germany). Then the plates are washed 3 times with HBSS buffer and, after further incubation of 15 minutes at room temperature, they are used for Ca^2+ measurement in the FLIPR. The Ca^2+-dependent fluorescence is measured before and after adding the test substances (wavelength λex=^488 nm, λem=540 nm). Quantification is based on measurement of the maximum fluorescence intensity (FC, fluorescence counts) over time.
(§3) The FLIPR protocol comprises 2 additions of the substance. First the test substances (10 μM) are pipetted onto the cells and the Ca^2+ influx is compared with the control (capsaicin 10 μM) (% activation relative to the Ca^2+ signal after adding 10 μM capsaicin). After incubation for 5 minutes, 100 nM capsaicin is applied and the influx of Ca^2+ is determined again.
(§4) Desensitizing agonists and antagonists led to suppression of Ca^2+ influx. The % inhibition is calculated compared to the maximum inhibition attainable with 10 μM capsazepin.

rVR1 = target: T2, rVR1 (Rattus norvegicus, UniProt O35433); assay: Functional investigation at the vanilloid receptor (VR1), FLIPR Ca2+ influx assay, Method II, rVR1; type: cell-based; details: for IC50: suppression of capsaicin-induced Ca2+ influx; for rVR1 10 μM Stimulation / inhibition at 10 µM: test substance 10 μM; for rVR1 10 μM Stimulation: % activation relative to the Ca2+ signal after adding 10 μM capsaicin; for inhibition at 10 µM: inhibition of Ca2+ influx after 100 nM capsaicin, compared to maximum inhibition with 10 μM capsazepin
T2 construct: expressed in transfected cells; host or cells: CHO K1 cells (ECACC)
Description: as §1, §2, §3, §4

T1 sequence (Q8NER1 whole entry): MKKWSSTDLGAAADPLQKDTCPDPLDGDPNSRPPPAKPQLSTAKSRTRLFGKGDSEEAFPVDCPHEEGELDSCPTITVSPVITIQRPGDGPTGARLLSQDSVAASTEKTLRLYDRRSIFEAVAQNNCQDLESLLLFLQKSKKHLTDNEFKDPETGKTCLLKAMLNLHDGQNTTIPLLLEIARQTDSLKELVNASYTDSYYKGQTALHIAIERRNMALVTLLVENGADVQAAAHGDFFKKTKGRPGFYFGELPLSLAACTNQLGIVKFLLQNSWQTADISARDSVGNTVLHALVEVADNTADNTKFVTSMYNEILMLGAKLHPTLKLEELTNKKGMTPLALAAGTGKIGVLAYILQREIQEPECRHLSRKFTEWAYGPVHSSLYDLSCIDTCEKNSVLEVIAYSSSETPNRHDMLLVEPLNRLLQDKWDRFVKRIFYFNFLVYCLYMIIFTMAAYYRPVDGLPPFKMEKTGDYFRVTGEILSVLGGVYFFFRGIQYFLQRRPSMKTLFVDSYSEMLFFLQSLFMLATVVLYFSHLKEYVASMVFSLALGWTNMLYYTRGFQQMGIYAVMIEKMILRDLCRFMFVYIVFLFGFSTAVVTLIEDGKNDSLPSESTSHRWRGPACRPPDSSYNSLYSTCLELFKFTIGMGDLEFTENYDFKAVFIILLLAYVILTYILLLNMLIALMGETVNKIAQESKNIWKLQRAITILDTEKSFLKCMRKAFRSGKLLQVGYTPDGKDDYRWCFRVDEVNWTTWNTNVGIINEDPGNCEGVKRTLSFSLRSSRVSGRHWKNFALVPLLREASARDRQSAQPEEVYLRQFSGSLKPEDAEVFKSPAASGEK
T2 sequence (O35433 whole entry): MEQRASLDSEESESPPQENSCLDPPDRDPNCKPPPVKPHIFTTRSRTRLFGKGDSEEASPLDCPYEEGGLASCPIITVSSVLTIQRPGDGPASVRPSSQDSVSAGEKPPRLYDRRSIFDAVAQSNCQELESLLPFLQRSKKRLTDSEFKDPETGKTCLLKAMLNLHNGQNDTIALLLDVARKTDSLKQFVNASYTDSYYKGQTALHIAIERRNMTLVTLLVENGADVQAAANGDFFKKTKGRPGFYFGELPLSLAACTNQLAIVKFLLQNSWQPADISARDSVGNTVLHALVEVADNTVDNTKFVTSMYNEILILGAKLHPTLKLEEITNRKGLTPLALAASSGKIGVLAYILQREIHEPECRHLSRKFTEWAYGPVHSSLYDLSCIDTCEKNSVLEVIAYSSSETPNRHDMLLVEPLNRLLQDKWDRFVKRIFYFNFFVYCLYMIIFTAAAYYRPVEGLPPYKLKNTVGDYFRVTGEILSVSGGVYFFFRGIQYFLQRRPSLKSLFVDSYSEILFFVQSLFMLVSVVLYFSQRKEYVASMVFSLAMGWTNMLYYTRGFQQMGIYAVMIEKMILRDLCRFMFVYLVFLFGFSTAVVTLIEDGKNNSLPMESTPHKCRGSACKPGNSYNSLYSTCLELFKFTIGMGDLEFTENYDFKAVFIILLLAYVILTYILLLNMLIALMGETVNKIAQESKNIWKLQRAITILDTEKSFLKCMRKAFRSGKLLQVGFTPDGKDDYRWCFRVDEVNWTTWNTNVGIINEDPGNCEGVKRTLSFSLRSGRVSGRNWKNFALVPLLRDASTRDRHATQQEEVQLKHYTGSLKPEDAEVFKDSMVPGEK

| Compound | IC50 (hVR1) [µM] | inhibition at 10 µM (hVR1) [%] | IC50 (rVR1) [µM] | rVR1 10 μM Stimulation (rVR1) [%] | inhibition at 10 µM (rVR1) [%] |
| --- | --- | --- | --- | --- | --- |
| CCCCCCCCCCCCCCCCOC(=O)NC(=O)NCCC[N+](C)(C)C [compound 3, 4-(Trimethylamino-1-propyl)allophanic acid hexadecyl ester iodide] | 4.27 | 56.9 | 1.27 | −0.73 | 94.4 |
| CCCCCCCCCCCCCCCCOC(=O)NC(=O)NCC[N+]1(C)CCCC1 [compound 2, 4-(Pyrrolidinium-1-ethyl)allophanic acid hexadecyl ester iodide] | 0.92 | 88.9 | 1.23 | −0.02 | 87.1 |
| CCCCCCCCCCCCCCCCOCC1(COC(=O)NC(=O)NCC[N+](C)(C)C)CCCO1 (centres unmarked) [compound 16, 4-(Trimethylamino-1-ethyl)allophanic acid (2-hexadecyloxymethyltetrahydrofuran-2-yl)methyl ester iodide] | 1.7 | 68.6 | 2.9 | 0.58 | 99.3 |
| CCCCCCCCCCCCCCCCOC[C@@H]1CC[C@H](COC(=O)NC(=O)NCC[N+](C)(C)C)O1 (relative stereo) [compound 13, 4-(Trimethylamino-1-ethyl)allophanic acid (cis-5-hexadecyloxymethyltetrahydrofuran-2-yl)methyl ester iodide] | 1.1 | 80.8 | 1.3 | 0.36 | 92.1 |
| CCCCCCCCCCCCOC(=O)NC(=O)NCC[N+](C)(C)C [compound 1, 4-(Trimethylamino-1-ethyl)allophanic acid dodecyl ester iodide] | 2.43 | 95.4 | 2.1 | 0.55 | 103 |
| CCCCCCCCCCCCCCCCOCC(COC(=O)NC(=O)NCC[N+](C)(C)C)OC (centres unmarked) [compound 14, 4-(Trimethylamino-1-ethyl)allophanic acid 3-hexadecyloxy-2-methoxypropan-1-yl ester iodide] | 2.4 | 93.1 | 1.15 | 0.09 | 95.5 |
| CCCCCCCCCCCCCCCCOC(=O)NC(=O)NCC[N+](C)(C)C [compound 15, 4-(Trimethylamino-1-ethyl)allophanic acid hexadecyl ester iodide] | 3.45 | 101 | 2.95 | −1.01 | 109 |
